From patent publication US7208518B2, “Substituted furochromene compounds of antiinflammatory action” (GlaxoSmithKline Istrazivacki Centar Zagreb D.O.O., priority 2003, dated 2007)

How the values were obtained:
[1] = tested on: hyperreactivity of the bronchi induced by methacholine; assay: Hyperreactivity of the bronchi, pletismometric method, mice; assay type: in vivo; settings: i.p. 10 mg/kg, totally for 4 days, methacholine concentration of 25 mg/mL, measured over 24 hours after the provocative test
Experimental: (§1) Hyperreactivity of the Bronchi
(§2) The hyperreactivity of the bronchi was measured by pletismometric method (Buxco pletismometer), which is based on pressure difference and was performed in conscious and non-bound animals. The action of the compounds on the hyperreactivity of the bronchi induced by methacholine (Sigma) in aerosol form in different concentrations was expressed by the percentage of the increase of the enhanced pause value (PENH) above the base line, which was recorded without a cholinergic stimulant.
Compound 6 was used i.p. in mice in a dosis of 10 mg/kg within a period beginning two days prior to provocative test to the end of the test, totally for 4 days. The hyperreactivity of the bronchi was measured by pletismometric method over 24 hours after the provocative test.

[2] = tested on: hyperreactivity of the bronchi induced by methacholine; assay: Hyperreactivity of the bronchi, pletismometric method, rats; assay type: in vivo; settings: i.p. 10 mg/kg, totally for 4 days, methacholine concentration of 50 mg/mL, measured over 24 hours after the provocative test
Experimental: as §1, §2
Compound 36 was used i.p. in rats in a dosis of 10 mg/kg within a period beginning two days prior to the provocative test to the end of test, totally for 4 days. The hyperreactivity of the bronchi was measured by pletismometric method over 24 hours after the provocative test.

Cc1cc(C)c2c(O)c(C3c4c(c5c(C)cc(C)cc5oc4=O)OC3O)c(=O)oc2c1 (centres unmarked) [Compound 6, 2-Hydroxy-3-(4-hydroxy-5,7-dimethyl-2-oxo-2H-chromene-3-yl)-7,9-dimethyl-2,3-dihydro-4H-furo[3,2-c]chromene-4-one]
hyperreactivity of respiratory airways (PENH) in relation to the positive control group [1]: statistically significantly (t-test, p<0.05) decreased

O=c1oc2cc(Cl)ccc2c(O)c1C1c2c(c3ccc(Cl)cc3oc2=O)OC1O (centres unmarked) [Compound 36, 2-Hydroxy-3-(4-hydroxy-7-chloro-2-oxo-2H-chromene-3-yl)-7-chloro-2,3-dihydro-4H-furo[3,2-c]chromene-4-one]
hyperreactivity of respiratory airways (PENH) in relation to the positive control group [2]: statistically significantly (t-test, p<0.01) decreased
